Series [1] deals with T1, strychnine-insensitive glycine receptors (NMDA receptor complex) (Rattus norvegicus, UniProt P35439).
T1 construct: Synaptic membranes were prepared from forebrains of adult; from tissue; host or cells: forebrain (whole brain minus cerebellum and brainstem) synaptic membranes of adult male Sprague-Dawley rats
The settings on record: cited from earlier work.

The subject of series [2] is strychnine-induced convulsions. The format is in vivo, male NIH-Swiss mice. On the procedure:
(§1) Male (25-30 g) NIH-Swiss mice (Harlan Sprague-Dawley, Frederick, Md.) were group housed in 32 cm×25 cm×15 cm plastic cages (10-15/cage) with food and water freely available. Mice were injected intraperitoneally with the test substance and challenged fifteen minutes later (unless otherwise specified) with NMDA (125 mg/kg), pentylenetetrazole (PTZ) (80mg/kg), strychnine (strych.) hemisulfate (2 mg/kg, as the base), bicuculline (bicuc.) (6 mg/kg) or maximal electroshock (MES). NMDA, PTZ, and strych. hemisulfate were dissolved in distilled water. Bicuculline was dissolved in 0.01 N HC1. These compounds were injected in a volume of 0.1 ml 1-aminocyclopropanecarboxylates were dissolved in distilled water and doses ≤500 mg/kg injected in a volume of 0.1 ml; doses >500 mg/kg were injected in proportionately larger volumes. Immediately after convulsant challenge, mice were placed in 28.5 cm×17.8 cm×12 cm plastic cages (1/cage) and observed for 15 minutes. The presence or absence of convulsions and the time to the first convulsive episode (latency) were noted. MES were produced by applying a 50 mA current through alligator clips attached to the pinnae for 0.2 s.

The test system of series [3] is bicuculline-induced convulsions. The class given is in vivo, male NIH-Swiss mice. On the procedure: as §1
The test system of the next series is NMDA-induced convulsions. The series is described as follows: NMDA-induced convulsions and death (anticonvulsant activity). The class given is in vivo, male NIH-Swiss mice. On the procedure:
as §1

Another series deals with NMDA receptor complex. Particulars: compared with glycine; Marvizon et al, 1989; cited from earlier work.
Series [4] concerns maximal electroshock seizures. The series is described as follows: Maximal electroshock seizures (MES). The class given is in vivo, male NIH-Swiss mice. Here is the method: as §1
Series [5] relates to motor performance (horizontal wire). The series is described as follows: Motor performance, horizontal (hanging) wire test. The class given is in vivo, NIH-Swiss mice. Particulars: for impairment of performance in hanging (horizontal) wire test: ACPC 100-2000, ACPCM 19-571 mg/kg, MK-801 1 mg/kg, thirty minutes; for % Impairment, Hanging Wire: i.p., ACPC 400-2000, ACPCM 114-571, MK-801 1 mg/kg. The source says: (§2) Evaluation of motor performance:

The test system of series [6] is pentylenetetrazole (PTZ)-induced convulsions. The series is described as follows: PTZ-induced convulsions. The format is in vivo, male NIH-Swiss mice. Here is the method:
as §1

The test system of series [7] is motor performance (rotarod). The series is described as follows: Motor performance, rotarod. The format is in vivo, NIH-Swiss mice. The settings on record: for impairment of performance in rotarod test: ACPC 100-2000, ACPCM 19-571 mg/kg, MK-801 1 mg/kg, thirty minutes; for % Impairment, Rotarod: i.p., ACPC 400-2000, ACPCM 114-571, MK-801 1 mg/kg.
From the text: as §2

Series [8] concerns NMDA-gated cation channels. The settings on record: Nadler et al, 1988; cited from earlier work.
Series [9] concerns strychnine insensitive glycine binding site of the N-methyl-D-aspartate (NMDA) receptor complex. Particulars: Marvizon, 1989; cited from earlier work.
For series [10], the system named is strychnine-induced convulsions. The settings on record: MK-801; Clineschmidt et al, 1982a; cited from earlier work.
For series [11], the system named is bicuculline-induced convulsions. Particulars: MK-801; Clineschmidt et al, 1982a; cited from earlier work.
Series [12] concerns [^3 H]glycine binding (NMDA receptor complex). Particulars: MK-801 10 μM; Marvizon and Skolnick, 1988; cited from earlier work.
Series [13] relates to pentylenetetrazole (PTZ)-induced convulsions. The settings on record: MK-801; Clineschmidt et al, 1982a; cited from earlier work.

Where two headings read alike, the source gives them in different places.

Take `NC1(C(=O)O)CC1` [ACPC, 1-aminocyclopropanecarboxylic acid]: the IC50 in [1] (ACPC, Marvizon et al, 1989, read-out: Inhibition of [^3 H] glycine binding IC50) is 0.038 ± 0.007 µM. For the same molecule, the “inhibition of strychnine-insensitive [^3 H]glycine binding (type)” value in series [1] (Marvizon et al, 1989) is given as “potent, competitive inhibitor”. Further, the Ki in series [1] (Marvizon et al, 1989, read-out: affinity K1 for strychnine-insensitive glycine receptors in vitro) was 0.032 µM. For the same molecule, in series [2] (ACPC 400 mg/kg), the “latency to convulsions induced by strych.” value is “not significantly altered” and the “protection against strych.-induced convulsions” value is listed as “did not afford significant protection”. In series [2] (ACPC 400 mg/kg i.p., strychnine 2 mg/kg), the “Effect on convulsions induced by STRYCH. (2)” value was “-”. Besides, in [3] (ACPC 400 mg/kg), the “latency to convulsions induced by bicuc.” value is “not significantly altered” and the “protection against bicuc.-induced convulsions” value is given as “did not afford significant protection”. For the same molecule, in [3] (ACPC 400 mg/kg i.p., bicuculline 6 mg/kg), the “Effect on convulsions induced by BICUC. (6)” value was “-”. In addition, in the series on NMDA-induced convulsions (ACPC 400 mg/kg), the “anticonvulsant effect still manifest after (duration)” value worked out at 30 min and the “maximum protection against NMDA-induced convulsions” value worked out at 85%. Also, the “protection against NMDA-induced convulsions and death (efficacy, time)” value with NMDA-induced convulsions (ACPC 400 mg/kg, 15 minutes prior to NMDA) is “most efficacious”. The ED50 in the series on NMDA-induced convulsions (Mus musculus, ip, read-out: ED50, protection against NMDA-induced convulsions and death) stood at 234 mg/kg. Moreover, the dose-response curve shape entry in the series on NMDA-induced convulsions (NMDA-induced convulsions) was “"bell-shaped" dose-response curve”. The “Complete protection against NMDA-induced convulsions” value with NMDA-induced convulsions (i.p.) was “inability of ACPC to completely block NMDA-induced convulsions”. The “Effect on convulsions induced by NMDA (125)” value in the series on NMDA-induced convulsions (i.p., 15 min before NMDA 125 mg/kg, ACPC 100-500, ACPCE 39-195, ACPCM 19-190 mg/kg) is given as “+”. For the same molecule, the “enhancement of [3H]MK-801 binding” value in the series with NMDA receptor complex was “enhances [3H]MK-801 binding to this supramolecular complex with a lower efficacy than glycine”. Further, the “effect on MES” value in series [4] (ACPC 200-2000, ACPCM 114-571 mg/kg) is on record as “Neither ACPC (200-2000 mg/kg) nor ACPCM (114-571 mg/kg) had a significant, dose-dependent effect”. Also, in [4] (ACPC 200-2000, ACPCM 114-571 mg/kg i.p.), the “Effect on convulsions induced by MES” value is listed as “-”. Moreover, in series [5], the “impairment of performance in hanging (horizontal) wire test” value was “no impairment” and the “% Impairment, Hanging Wire” value came to 0%. Moreover, in [6] (ACPC 400 mg/kg), the “latency to convulsions induced by PTZ” value is recorded as “not significantly altered” and the “protection against PTZ-induced convulsions” value is “did not afford significant protection”. Further, the “Effect on convulsions induced by PTZ (80)” value in [6] (ACPC 400 mg/kg i.p., PTZ 80 mg/kg) was “-”. Besides, in series [7], the “impairment of performance in rotarod test” value was “no impairment” and the “% Impairment, Rotarod” value came out at 0%. Moreover, the “enhancement of [^3 H]TCP binding” value in series [8] is “enhances [^3 H]TCP binding”. The overt behavioral effects result in the series “Overt behavioral effects” (ACPC 100-2000, ACPCE 39-195, ACPCM 19-571 mg/kg) was “No overt behavioral effects”. Besides, in “Overt behavioral effects” (mouse, in vivo), the “overt behavioral effects or neurotoxicity” value is “lack of overt behavioral effects or neuro-toxicity” and the “therapeutic index versus competitive or non-competitive NMDA receptor antagonists” value is “greater therapeutic index”. In [9], the “partial agonism at strychnine insensitive glycine binding site” value was “potent and selective partial agonist”.
Regarding `C[C@]12N[C@H](Cc3ccccc31)c1ccccc12` [MK-801, (+)-5-Methyl-10,11-dihydro-5H-dibenzo [a,d]cyclo-hepten-5,10-imine, reference compound], in series [1] (MK-801, Marvizon and Skolnick, 1988), the “Inhibition of [^3 H] glycine binding, mode” value is recorded as “noncom-”. In the series with NMDA-induced convulsions (MK-801 1 mg/kg i.p., positive control, superscript 3), the “Effect on convulsions induced by NMDA (125)” value was “+”. Moreover, the “protection against NMDA-induced lethality” value in the series on NMDA-induced convulsions (MK-801 1 mg/kg, thirty minutes following administration) was “complete protection”. For the same molecule, the “Effect on convulsions induced by STRYCH. (2)” value in [10] is given as “-”. The “Effect on convulsions induced by MES” value in series [4] (MK-801 1 mg/kg i.p., superscripts 1,3) was “+”. Also, in series [4] (MK-801 1 mg/kg, thirty minutes before MES), the “abolished hindclimb tonic extensor component of MES, % of mice” value is recorded as 87%. Also, in series [5], the “impairment of performance in hanging (horizontal) wire test” value was “complete impairment” and the “% Impairment, Hanging Wire” value is given as 100%. Moreover, in [11], the “Effect on convulsions induced by BICUC. (6)” value is recorded as “+”. Further, in series [7], the “impairment of performance in rotarod test” value is “complete impairment” and the “% Impairment, Rotarod” value is 100%. The “inhibition of activation of [^3 H]glycine binding by Mg^+2” value in [12] is recorded as “non-competitively inhibits”. Besides, in the series “Overt behavioral effects” (MK-801 1 mg/kg, thirty minutes after administration), the hyperactivity entry is “profound hyperactivity”. Moreover, the “Effect on convulsions induced by PTZ (80)” value in series [13] is “+”.

The record behind these values is patent US6017957A (priority 1989, dated 2000).
